This is an account of results in US12097174B2, “Methods and agents that enhance myogenic progenitor cell engraftment” (President and Fellows of Harvard College, priority 2018, dated 2024).

In test [1] the test system is Zebrafish myogenic progenitor cells (ZeMPCs). The experiment in a line: Limiting dilution engraftment assay (ELDA): cells treated ex vivo, transplanted into adult zebrafish, imaged at 7 dpt. Format: in vivo. The procedure:
Donor cells were derived from embryos that contained a GFP cassette driven by the promoter for mylz2, a muscle-specific structural protein. Recipients were optically clear, immunocompromised adult prkdc−/− zebrafish. To perform a limiting dilution assay, three doses (n=100, 200, and 400 cells) were administered per treatment (n=10 engraftment events per treatment-dose combination). The estimated engrafting cell frequency was calculated using the Extreme Limiting Dilution Analysis (ELDA, Hu et. al. 2009), which provides the most likely estimate (MLE) of engrafting cell frequency.
Given that this group of 230 lipids is too many to be examined in mice, transplantation efficiency was instead examined via limit-dilution assays in 15 recipient zebrafish per compound after a brief (4 hour) ex vivo chemical exposure. Positive hits from this primary screening were rescreened in replicate transplantation experiments incorporating dose response testing.
Lipids are frequently found to enhance cell migration and homeostasis in blood and muscle tissue (Cencetti et al., 2014; Lahvic et al., 2018; Li et al., 2015; Oh et al., 2016), and so it was elected to screen mainly bioactive lipids in efforts to identify compounds that enhance ZeMPCs engraftment efficiency in vivo. Myogenic progenitor cells were treated for 4 hours with one of the 188 unique lipid compounds contained in the ICCB Known Bioactives Library. Compound-treated cells were then harvested and transplanted intramuscularly into both flanks of 5 different casper recipient fish, with transplants performed at each of 3 transplanted cell doses (25, 75 or 150 cells). In these studies, recipient fish received split-dose irradiation of 15 Gy at 2 days and 1 day prior to transplantation to suppress any immune responses to the transplanted cells. Engraftment efficiency was measured by imaging casper recipients at 7 dpt (FIG. 18A). […] For this secondary screening approach, cells were transplanted into prkdc^D3612ls casper fish, which are deficient in mature T and B cells, and assayed engraftment efficiency in the recipient fish 7 days post-transplantation. Two compounds were identified, lysophosphatidic acid (LPA) and niflumic acid (NFA), which increased ZeMPC engraftment efficiency in both of these assay systems (FIG. 12B).
Lipids from the ICCB Known Bioactives Library (enzolifesciences.com/BML-2840/iccb-known-bioactives-library) were diluted at a 1:100 ratio in transplantation media (zESC medium without bFGF and FBS) and added to prewashed in vitro expanded muscle cells. NFA (Cayman and Santa Cruz Biotechnology) and LPA (Cayman and Santa Cruz Biotechnology) were used for the secondary confirmation screening experiments. […] 4- to 8-month-old casper recipients received split-dose irradiation of 15 Gy each, either 2 days or 1 day before transplantation. For LDA screening, cells were transplanted into each side of 5 pre-irradiated casper recipient fish or 5 non-irradiated prkdc-mutant recipient zebrafish. At 7 dpt, the recipients were anaesthetized using a previously described method (Dang et al., 2016) and imaged using a fluorescent stereo microscope (Leica M165 FC). Successful engraftment was defined as the presence of GFP+ fibers. Variation in different experiments is caused by inherent variability in the in vitro ZeMPC derivation procedure, which results in differences in engrafting cell frequency across different derivation attempts. To mitigate the impact of such experimental variation on screening results, only LDA results for cells derived from the same cultures were compared. Comparison to a vehicle-treated experimental control was included in every transplantation experiment. Next, the chemical treated cell potency and vehicle-treated cell potency was measured using the Extreme Limiting Dilution Analysis (ELDA) software (Hu and Smyth, 2009). The ratio of the treated cell potency and vehicle-treated cell potency determine the engraftment efficiency fold increase value.

Another test deals with ZeMPCs. The experiment in a line: Calcium imaging in Fura-2, AM treated ZeMPCs (single-cell imaging). The following applies: 10 μM NFA, 5 μM LPA, 10 μM ionomycin; 10-20 seconds after loading. The format is cell-based, zebrafish. As for the experimental part: Fura-2, AM treated ZeMPCs were exposed to 10 μM NFA, 5 μM LPA, 10 μM lonomycin (as a positive control) and DMSO (as vehicle control) to visualize their effect on intracellular calcium ion concentration using single-cell imaging. […] Scale bar 50 μm.
(§1) The ZeMPCs and C2C12 cells were incubated with Fura-2, AM (Thermo Fisher Sci F1225), a cell permeant fluorescent calcium ion indicator, for 45 minutes at 28.5° C. and 37° C., respectively, followed by imaging with Celldiscoverer7 Microscope (Zeiss). 20 seconds after imaging initiation the treatment was added to the cells and continued for a total of 2-3 minutes.

In a further test the test system is C2C12 cells. The experiment in a line: Calcium imaging in Fura-2, AM treated C2C12 cells (single-cell imaging). The format is cell-based, mouse. The following applies: 10 μM NFA, 5 μM LPA; 10-20 seconds after loading. As for the experimental part:
Fura-2, AM treated C2C12 cells were exposed to 10 μM NFA, 5 μM LPA or DMSO as vehicle control to visualize the effect on intracellular calcium ion concentration using single-cell imaging. […] Scale bar 50 μm.
as §1

“Also recorded” adds a separate entry of the source.

As to `Cc1ccc(Cl)c(Nc2ccccc2C(=O)O)c1Cl` [MFA, meclofenamic acid], the engraftment frequency entry in test [1] (concurrent injection of donor cells with 10 uM MFA) was “not sufficient to increase engraftment frequency”. Besides, the “estimated engrafting cell frequency / engraftment” value in test [1] (donor cells treated 2 hours with 10 uM MFA before transplantation, vs vehicle, p=0.0367) is listed as “increase the engraftment capacity; also recorded: optimally increase engraftment; also recorded: higher”.
In the case of `C[C@H](CCC(=O)O)C[C@H](C)C[C@H](C)C(=O)/C=C(\O)[C@H](C)C[C@H](C)C/C=C/[C@@H](C)[C@@H](O)[C@@H](C)[C@@H](O)C[C@@H]1CC[C@@](C)([C@H]2CC[C@@](C)([C@@H](C)O)O2)O1` [ionomycin], the “engraftment efficiency of treated ZeMPCs” value in test [1] (prkdc-mutant zebrafish, vs vehicle-treated controls) is listed as “increased the engraftment efficiency”. For the same molecule, the “intracellular calcium ion concentration” value with ZeMPCs and with C2C12 cells was “increase” throughout.
